{
  "source": "patent US11414489B2",
  "about": "“Combination therapy with a hyaluronan-degrading enzyme and an immune checkpoint inhibitor” (HALOZYME, INC., priority 2014, dated 2022)",
  "key": {"[1]": {"tested_on": "parental MH194+PSC4 syngeneic tumors", "experiment": "Tumor growth in parental MH194+PSC4 syngeneic tumor mouse model (tumor volume, TGI)", "format": "in vivo, C57BL/6 mice", "conditions": "for Tumor volume, Day 0: Day 0 (baseline); for Tumor volume, Day 0 / Tumor volume, Day 3 / Tumor volume, Day 7 / Tumor volume, Day 10 / Tumor volume, Day 14 / Tumor volume, Day 17 / Tumor volume, Day 21: mean ± SEM; for TGI (tumor growth inhibition): last day vs vehicle", "protocol": "MH194 mouse pancreatic carcinoma cells (derived from the KrasLSL.G12D/+p53R172H/+PdxCretg/+ genetically engineered mouse model) were engineered to constitutively express human hyaluronan synthase 3 (HAS3) as in Example 1A. Stably transduced cells, designated MH194/HAS3 cells, were selected by hygromycin treatment. MH194/HAS3 and parental MH194 cells were maintained in tissue culture as an adherent monolayer in DMEM medium supplemented with 2 mM L-glutamine and 10% fetal bovine serum at 37° C. and 5% CO2.\nPancreas from C57BL/6 mice were minced with razor blades and placed in 2 mL of a digestion buffer containing 0.05% collagenase P, 0.1% DNAse, and 0.02% Pronase in Gey's balanced salt solution (GBSS). Following two […] digestion incubations at 37° C. with thorough mixing after each incubation, the resulting cell suspension was filtered through a 100 μm nylon mesh, washed twice in GBSS with 0.3% bovine serum albumin (BSA), and resuspended in 10 mL GBSS/BSA. Eight mL of Histodenz (Sigma, Cat. No. D2158) was added to the cell suspension, and the entire volume was pipetted under 6 mL GBSS/BSA in order to generate a discontinuous density gradient. Following centrifugation for 20 min at 1,400 g with the brake set at zero, the desired cells were harvested from the interface between the two density volumes and washed once with PBS and once with DMEM medium supplemented with 2 mM L-glutamine, 10% fetal bovine serum, and 1% amphotericin-B (complete DMEM). Cells were immortalized using Lenti-SV40 (Capital Biosciences, Cat. No. CIP-0011) using manufacturer's protocol. The resulting cell line, designated PSC4, were maintained in tissue culture as an adherent monolayer in complete DMEM at 37° C. and 5% CO2.\nMH194/HAS3 cells as described in part A above were trypsin-harvested at 80-90% confluency, washed twice with sterile Hanks Balanced Salt Solution (HBSS), and diluted with HBSS to a concentration of 4×10^6 cells/mL. Male C57BL/6 mice were obtained at 4-6 weeks from Taconic Farms and housed 4/cage. For tumor inoculations, mice were injected with 50 μL of cell suspension containing 2×10^5 MH194/HAS3 cells or parental MH194 cells along with 5×10^5 PSC4 (7×10^5 cells total) intramuscularly, adjacent to the right tibial periosteum.\nTumor volumes were measured by ultrasound as in Example 1A2. Approximately 15-30 frames out of 150-200 frames were analyzed and a tumor volume calculated and expressed in mm^3. When using the HA quantitation procedure described in Example 1A3, tumors grown from parental MH194+PSC4 cells contained 263±16 ng HA/mg tissue, whereas tumors grown from MH194/HAS3+PSC4 cells contained 1783±99 ng HA/mg tissue.\nMice containing parental MH194+PSC4 syngeneic tumors generated as described in Example 1C, with a mean tumor volume of 131±26 mm^3, were randomized into treatment groups, each containing 6 mice, such that the mean tumor volume of each group were substantially the same. Dexamethasone or saline (0.9% sodium chloride for injection) were administered intraperitoneally (IP) on days 0, 3, 7, 10, 14, and 17, and anti-PD-1 (BioXCell Inc, clone RMP1-14, Cat. No. BE0146) or saline were administered intraperitoneally (IP) on days 1, 4, 8, 11, 15, and 18, all at the dose levels indicated in Table 27. Tumor volumes were measured on days 0, 3, 7, 10, 14, 17, and 21. The middle dexamethasone dose level (3 mg/kg) was selected to approximate the human dose equivalent for clinical trials in which PEGPH20 is administered with dexamethasone to alleviate musculoskeletal discomfort."}, "[2]": {"conditions": "glucocorticoid administration; route (IV or PO); cited from earlier work"}, "[3]": {"conditions": "Dex 1 mg/kg IP 24 h prior to saline or α-PD-1 4 mg/kg IP"}, "[4]": {"conditions": "Dex 3 mg/kg IP 24 h prior to saline or α-PD-1 4 mg/kg IP"}, "[5]": {"conditions": "Dex 5 mg/kg IP 24 h prior to saline or α-PD-1 4 mg/kg IP"}},
  "data": [
    {"smiles": "C[C@@H]1C[C@H]2[C@@H]3CCC4=CC(=O)C=C[C@]4(C)[C@@]3(F)[C@@H](O)C[C@]2(C)[C@@]1(O)C(=O)CO", "note": "[Dex]", "values": [
      {"measurement": "Tumor volume, Day 0", "setting": "[1]; [3]", "result": "133 ± 8", "unit": "mm^3"},
      {"measurement": "Tumor volume, Day 0", "setting": "[1]; [4]", "result": "133 ± 9", "unit": "mm^3"},
      {"measurement": "Tumor volume, Day 0", "setting": "[1]; [5]", "result": "125 ± 10", "unit": "mm^3"},
      {"measurement": "Tumor volume, Day 3", "setting": "[1]; [3]", "result": "240 ± 19", "unit": "mm^3"},
      {"measurement": "Tumor volume, Day 3", "setting": "[1]; [4]", "result": "253 ± 17", "unit": "mm^3"},
      {"measurement": "Tumor volume, Day 3", "setting": "[1]; [5]", "result": "251 ± 22", "unit": "mm^3"},
      {"measurement": "Tumor volume, Day 7", "setting": "[1]; [3]", "result": "374 ± 39", "unit": "mm^3"},
      {"measurement": "Tumor volume, Day 7", "setting": "[1]; [4]", "result": "436 ± 23", "unit": "mm^3"},
      {"measurement": "Tumor volume, Day 7", "setting": "[1]; [5]", "result": "390 ± 46", "unit": "mm^3"},
      {"measurement": "Tumor volume, Day 10", "setting": "[1]; [3]", "result": "581 ± 50", "unit": "mm^3"},
      {"measurement": "Tumor volume, Day 10", "setting": "[1]; [4]", "result": "553 ± 63", "unit": "mm^3"},
      {"measurement": "Tumor volume, Day 10", "setting": "[1]; [5]", "result": "462 ± 46", "unit": "mm^3"},
      {"measurement": "Tumor volume, Day 14", "setting": "[1]; [3]", "result": "904 ± 81", "unit": "mm^3"},
      {"measurement": "Tumor volume, Day 14", "setting": "[1]; [4]", "result": "759 ± 81", "unit": "mm^3"},
      {"measurement": "Tumor volume, Day 14", "setting": "[1]; [5]", "result": "729 ± 77", "unit": "mm^3"},
      {"measurement": "Tumor volume, Day 17", "setting": "[1]; [3]", "result": "1354 ± 147", "unit": "mm^3"},
      {"measurement": "Tumor volume, Day 17", "setting": "[1]; [4]", "result": "1346 ± 109", "unit": "mm^3"},
      {"measurement": "Tumor volume, Day 17", "setting": "[1]; [5]", "result": "1202 ± 118", "unit": "mm^3"},
      {"measurement": "Tumor volume, Day 21", "setting": "[1]; [3]", "result": "1899 ± 155", "unit": "mm^3"},
      {"measurement": "Tumor volume, Day 21", "setting": "[1]; [4]", "result": "1867 ± 130", "unit": "mm^3"},
      {"measurement": "Tumor volume, Day 21", "setting": "[1]; [5]", "result": "1630 ± 126", "unit": "mm^3"},
      {"measurement": "TGI (tumor growth inhibition)", "setting": "[1]; [3]", "result": 19, "unit": "%"},
      {"measurement": "TGI (tumor growth inhibition)", "setting": "[1]; [4]", "result": 21, "unit": "%"},
      {"measurement": "TGI (tumor growth inhibition)", "setting": "[1]; [5]", "result": 31, "unit": "%"}
    ]},
    {"smiles": "C[C@]12CCC(=O)C=C1CC[C@@H]1[C@@H]2[C@@H](O)C[C@@]2(C)[C@H]1CC[C@]2(O)C(=O)CO", "note": "[Hydrocortisone]", "values": [
      {"measurement": "Equivalent Potency", "setting": "[2]", "result": 20, "unit": "mg"}
    ]},
    {"smiles": "C[C@H]1C[C@@H]2[C@H]([C@@H](O)C[C@@]3(C)[C@H]2CC[C@]3(O)C(=O)COC(=O)CCC(=O)O)[C@@]2(C)C=CC(=O)C=C12", "note": "[Methylprednisolone sodium succinate]", "values": [
      {"measurement": "Equivalent Potency", "setting": "[2]", "result": 4, "unit": "mg"}
    ]},
    {"smiles": "C[C@]12C=CC(=O)C=C1CC[C@@H]1[C@@H]2[C@@H](O)C[C@@]2(C)[C@H]1CC[C@]2(O)C(=O)CO", "note": "[Prednisolone]", "values": [
      {"measurement": "Equivalent Potency", "setting": "[2]", "result": 5, "unit": "mg"}
    ]}
  ]
}
